The source made the active and inactive calls. No cut-off for these calls is given here.
Experiments:
[1] = tested on: LLC-PK1; assay: Nephroprotective activity against cisplatin induced cytotoxicity in pig LLC-PK1 cells assessed as increase in cell viability at 50 uM incubated for 24 hrs by MTT assay; assay type: functional, Sus scrofa
[2] = tested on: LLC-PK1; assay: Nephroprotective activity against cisplatin induced apoptosis in pig LLC-PK1 cells assessed as decrease in ratio of apoptotic cells at 125 uM incubated for 24 hrs by annexin V staining based image cytometric analysis; assay type: functional, cell-based; conditions: Sus scrofa
[3] = tested on: LLC-PK1; assay: Nephroprotective activity against cisplatin induced cytotoxicity in pig LLC-PK1 cells assessed as decrease in phosphorylated JNK level at 125 uM incubated for 24 hrs by Western blot analysis; assay type: functional, cell-based; conditions: Sus scrofa
[4] = tested on: LLC-PK1; assay: Nephroprotective activity against cisplatin induced cytotoxicity in pig LLC-PK1 cells assessed as increase in cell viability at 25 uM incubated for 24 hrs by MTT assay; assay type: functional, Sus scrofa
[5] = tested on: LLC-PK1; assay: Nephroprotective activity against cisplatin induced cytotoxicity in pig LLC-PK1 cells assessed as increase in cell viability at 125 uM incubated for 24 hrs by MTT assay; assay type: functional, Sus scrofa
[6] = tested on: LLC-PK1; assay: Nephroprotective activity against cisplatin induced cytotoxicity in pig LLC-PK1 cells assessed as decrease in cleaved caspase-3 level at 125 uM incubated for 24 hrs by Western blot analysis; assay type: functional, cell-based; conditions: Sus scrofa
[7] = tested on: LLC-PK1; assay: Nephroprotective activity against cisplatin induced cytotoxicity in pig LLC-PK1 cells assessed as decrease in phosphorylated ERK level at 125 uM incubated for 24 hrs by Western blot analysis; assay type: functional, cell-based; conditions: Sus scrofa
[8] = tested on: LLC-PK1; assay: Nephroprotective activity against cisplatin induced cytotoxicity in pig LLC-PK1 cells assessed as increase in cell viability at 250 uM incubated for 24 hrs by MTT assay; assay type: functional, Sus scrofa

Row | Structure (SMILES) | Activity [1] [%] | Activity [2] | Activity [3] | Activity [4] [%] | Activity [5] [%] | Activity [6] | Activity [7] | Activity [8] [%]
1 | COc1cc(Br)c(/C=C/C(=N/O)c2ccc(Br)cc2)cc1OC | 83.86 | Active | Active | 66.83 | 83.79 | Active | Active | 94.78
2 | COc1cc(Br)c(/C=C/C(=N/O)c2ccc(Cl)cc2)cc1OC | 82.22 | Active | Active |  | 84.41 | Active | Active | 94.51

Source: ChEMBL document CHEMBL5223153, “Elucidation of protective effects of oxime derivatives against cisplatin-induced cytotoxicity in LLC-PK1 kidney cells” (2023)
